Measured values: ChEMBL document CHEMBL1133235, “Kinetic characterisation of ene-diol-based inhibitors of alpha-amylase” (Bioorg Med Chem Lett, 2000)

Test system: alpha-amylase (Hordeum vulgare)
Assay: Percent inhibition of Alpha-amylase activity was determined at 5 mM
Settings: malt

inhibition: 92%
Structure (SMILES): O=C(O)/C(O)=C(\O)C(=O)O
